Assay results from patent US6368529B1, “Lignocellulosic composite” (U.S. Borax Inc., priority 2000, dated 2002).

Tests used:
[1] = system: Gloeophyllum trabeum (ATCC 11539); experiment: Soil block decay test (AWPA E10-87), brown rot; type: cell-based; details: for Comparison with zinc borate against G. trabeum: after leaching
Description: (§1) Wood flakeboard was manufactured by conventional wood processing techniques, incorporating various borates at a range of concentrations, from 0.5 to 2.0% boric acid equivalent (BAE). Boric acid (H3BO3) equivalent is a commonly used convention for comparing various borates on an equivalent contained-boron basis. For each borate/loading combination, fifteen pounds of aspen (Populus tremuloides) furnish having an average particle size of about 2.5×0.75×0.025 inches, was blended with 0.75 pounds (5%) Rubinate 1840 (product of ICI), a polymeric methylene diphenyl diisocyanate adhesive, 0.11 pounds (0.75%) of Cascowax EW 403HS (product of Borden) and various concentrations of nine test borates. For each borate/loading combination, three 18″×18″ composite boards of 0.5 inch thickness were formed by pressing for 210 seconds at (180 seconds pressure, 30 seconds pressure release) at 204.5° C. (the pressure was kept in excess of 6000 psi during the pressure cycle). Each board was trimmed to 15″×15″ and cut to produce internal bond and analytical/soil block specimens for evaluation. Replicates were cut from the inner portion of the boards. Four internal bond, two leaching panels and twenty analytical/soil block specimens were cut from each board.
(§2) The panels to be leached (4.5″×4.5″) were edge sealed with an epoxy sealant and leached for two weeks. Leaching began with pressure treatment of the specimens with water for 30 minutes under vacuum and one hour under pressure. The specimens were removed from the pressure treatment chamber and the residual water was changed after two hours, then daily for the remainder of the leaching period. Afterward, they were trimmed to remove the sealed edges and cut into analytical/soil block test samples. Unleached and leached analytical/soil block samples for each board type were separately randomized. Fifteen were analyzed for borate content and ten were retained for the soil block decay test.
(§3) The soil block test was conducted in accordance with AWPA E10-87, with the exception that soil block dimensions were 1.0″×1.0″×0.5″. The fungi used were Gloeophyllum trabeum (ATCC 11539) for brown rot test and Trametes versicolor (MAD 697) for white rot test. An untreated composite control was run both unleached and leached. Solid southern yellow pine and birch were also run as unleashed controls against G. trabeum and T. versicolor, respectively as a test of fungal vigor.

[2] = system: Trametes versicolor (MAD 697); experiment: Soil block decay test (AWPA E10-87), white rot; type: cell-based; details: for Comparison with zinc borate against T. versicolor: after leaching
Description: as §1, §2, §3

[3] = Borate content of composite after two weeks water leaching; type: physicochemical; details: leached two weeks
Procedure: as §2

[4] = Bulk solids flow testing, J. R. Johanson Indicizer System; type: physicochemical; details: for Hopper Index Stainless Steel / Chute Index Stainless Steel: 304-2B Stainless Steel; for Hopper Index Stainless Steel / Hopper Index Plastic / Hopper Index Carbon Steel: maximum angle from the vertical, larger is better; for Chute Index Stainless Steel / Chute Index Plastic / Chute Index Carbon Steel: minimum angle from horizontal, smaller is better; for Hopper Index Plastic / Chute Index Plastic: Tivar UHMWPE plastic; for Hopper Index Carbon Steel / Chute Index Carbon Steel: aged carbon steel; for Arching Index / Ratholing Index: multiple of the discharge opening, less than 1 necessary for free flow, average of 3-6 tests
Description: Bulk solids flow testing was done using the J. R. Johanson Indicizer System, including a Hang-up Indicizer and Hopper Indicizer, manufactured by J R Johanson, Inc. 712 Fiero Lane #37, San Luis Obispo, Calif. 93401. The test procedures are described in detail in their company literature (BULK SOLIDS INDICES TESTING, Hang-up Indicizer™ Instruction Manual ©JR Johanson, Inc. 1991 and BULK SOLIDS INDICES TESTING, Hopper Indicizer™ Instruction Manual ©JR Johanson, Inc. 1991). The results are presented in the following Table 3 as the Arching Index, Ratholing Index, Hopper Index and Chute Index, which are the average of several tests (3-6). The meaning and usefulness of these flow indices in evaluating the flow properties of bulk solids are also described in literature from JR Johanson, Inc., including Binside Scoop™, Vol. 7, No. 2, Fall 1994, Binside Scoop™, Vol. 8, No. 3, Winter 1995, and “Bulk solids Flow Indices—A Simplified Evaluation system”, by Jerry R. Johanson, ©JR Johanson, 1991.
Arching Index—A tendency of a cohesive material is to plug up the opening of a bin by forming an “arch” over the discharge opening. The arching index is given as a multiple of the discharge opening, so less than 1 is necessary for free flow. Numbers greater than 1 reflect a need to enlarge the opening.
Ratholing Index—A tendency of a cohesive material is to hang up on the sides of a bin while an open hole forms in the center and flow ceases. Rathole indices are also given as a multiple of the discharge opening and a number of less than 1 is necessary for free flow. Numbers greater than 1 mean the bins should be redesigned.
Hopper Index—The maximum angle, measured in degrees from the vertical, that is required for the conical portion of a hopper in order to produce reliable mass flow. A larger number is better.
Chute Index—The minimum angle, measured in degrees from horizontal, required for flow down a chute and to prevent material buildup at impact areas. A smaller number is better. Chute indices may often be close to the angle of repose.
Both hopper and chute indices measurements involve friction over a specified surface and measurements are made using substrates of the material of construction. The substrates used for these tests are 304-2B Stainless Steel, aged carbon steel and Tivar UHMWPE (ultra high molecular weight polyethylene) plastic.

[5] = leached two weeks, target loading 0.5% BAE (0.09% B)
[6] = leached two weeks, target loading 1.0% BAE (0.17% B)
[7] = leached two weeks, target loading 2.0% BAE (0.35% B)
[8] = unleached aspen flakeboard, target loading 0.5% BAE (0.09% B)
[9] = unleached aspen flakeboard, target loading 1.0% BAE (0.17% B)
[10] = unleached aspen flakeboard, target loading 2.0% BAE (0.35% B)
[11] = target loading 0.5% BAE (0.09% B)
[12] = target loading 1.0% BAE (0.17% B)
[13] = target loading 2.0% BAE (0.35% B)

Substance | Mean % Wt. Loss G. trabeum [1, 5] | Mean % Wt. Loss G. trabeum [1, 6] | Mean % Wt. Loss G. trabeum [1, 7] | Mean % Wt. Loss G. trabeum [1, 8] | Mean % Wt. Loss G. trabeum [1, 9] | Mean % Wt. Loss G. trabeum [1, 10] | Mean % Wt. Loss T. versicolor [2, 5] | Mean % Wt. Loss T. versicolor [2, 6] | Mean % Wt. Loss T. versicolor [2, 7] | Mean % Wt. Loss T. versicolor [2, 8] | Mean % Wt. Loss T. versicolor [2, 9] | Mean % Wt. Loss T. versicolor [2, 10] | Assay % B [3, 11] | Assay % B [3, 12] | Assay % B [3, 13] | Hopper Index Stainless Steel [4] | Chute Index Stainless Steel [4] | Hopper Index Plastic [4] | Chute Index Plastic [4] | Hopper Index Carbon Steel [4] | further results
Nobleite | 5.4% | 1.4% | 1.5% | 1.1% | 1.0% | 1.4% | 27.6% | 11.6% | 10.1% | 5.3% | 3.6% | 2.6% | 0.03 % B | 0.06 % B | 0.09 % B | 16 degrees | 45 degrees | 17 degrees | 41 degrees | 14 degrees | Chute Index Carbon Steel [4]: 47 degrees; Flow properties, summary ([4]; compared with zinc borate, Colemanite F and Colemanite, Glass Grade): superior flow properties; Arching Index [4]: 0.2; Ratholing Index [4]: 0.5
Colemanite [Colemanite (1)] | 5.5% | 1.5% | 1.0% | 0.6% | 1.0% | 1.5% | 27.5% | 8.4% | 2.5% | 3.9% | 3.7% | 2.4% | 0.03 % B | 0.07 % B | 0.19 % B |  |  |  | 90 degrees |  | Comparison with zinc borate against G. trabeum [1]: roughly comparable to zinc borate; Comparison with zinc borate against T. versicolor [2]: roughly comparable to zinc borate; Hopper Index Stainless Steel ([4]; Glass Grade): 14 degrees; Chute Index Stainless Steel ([4]; Glass Grade): 76 degrees; Hopper Index Plastic ([4]; Glass Grade): 8 degrees; Hopper Index Carbon Steel ([4]; Glass Grade): 3 degrees; Chute Index Carbon Steel ([4]; Glass Grade): 82 degrees; Arching Index ([4]; Glass Grade): 0.7; Ratholing Index ([4]; Glass Grade): 4.7
Colemanite [Colemanite (2)] | 3.4% | 1.6% | 1.3% | 0.8% | 0.6% | 1.1% | 19.9% | 5.1% | 2.2% | 5.1% | 2.3% | 2.2% | 0.04 % B | 0.08 % B | 0.18 % B |  |  |  | 90 degrees |  | Comparison with zinc borate against G. trabeum [1]: roughly comparable to zinc borate; Comparison with zinc borate against T. versicolor [2]: roughly comparable to zinc borate; Hopper Index Stainless Steel ([4]; listed as Colemanite F): 1.3 degrees; Chute Index Stainless Steel ([4]; listed as Colemanite F): 90 degrees; Hopper Index Plastic ([4]; listed as Colemanite F): 4.2 degrees; Hopper Index Carbon Steel ([4]; listed as Colemanite F): 2.7 degrees; Chute Index Carbon Steel ([4]; listed as Colemanite F): 90 degrees; Arching Index ([4]; listed as Colemanite F): 0.4; Ratholing Index ([4]; listed as Colemanite F): 3.9
Zinc Borate [reference compound] | 2.3% | 0.9% | 0.8% | 0.9% | 0.8% | 1.0% | 22.9% | 7.0% | 2.0% | 8.3% | 2.9% | 1.6% | 0.05 % B | 0.10 % B | 0.23 % B | 13 degrees | 38 degrees | 13 degrees | 58 degrees | 12 degrees | Chute Index Carbon Steel [4]: 44 degrees; Arching Index [4]: 0.5; Ratholing Index [4]: 2.9
